Assays:
Assay in all cases: KINOMEscan
Type in all cases: binding
Conditions in all cases: read-out: % control activity remaining
[1] = target: T1, ABL1(T315I)-nonphosphorylated (Homo sapiens, UniProt P00519, T315I)
T1 construct: purchased Eurofins DiscoverX KINOMEscan

AMPK-alpha1 = target: T2, AMPK-alpha1 (Homo sapiens, UniProt Q13131)
T2 construct: purchased Eurofins DiscoverX KINOMEscan

EPHB1 = target: T3, EPHB1 (Homo sapiens, UniProt P54762)
T3 construct: purchased Eurofins DiscoverX KINOMEscan
T3 sequence (P54762 18-984): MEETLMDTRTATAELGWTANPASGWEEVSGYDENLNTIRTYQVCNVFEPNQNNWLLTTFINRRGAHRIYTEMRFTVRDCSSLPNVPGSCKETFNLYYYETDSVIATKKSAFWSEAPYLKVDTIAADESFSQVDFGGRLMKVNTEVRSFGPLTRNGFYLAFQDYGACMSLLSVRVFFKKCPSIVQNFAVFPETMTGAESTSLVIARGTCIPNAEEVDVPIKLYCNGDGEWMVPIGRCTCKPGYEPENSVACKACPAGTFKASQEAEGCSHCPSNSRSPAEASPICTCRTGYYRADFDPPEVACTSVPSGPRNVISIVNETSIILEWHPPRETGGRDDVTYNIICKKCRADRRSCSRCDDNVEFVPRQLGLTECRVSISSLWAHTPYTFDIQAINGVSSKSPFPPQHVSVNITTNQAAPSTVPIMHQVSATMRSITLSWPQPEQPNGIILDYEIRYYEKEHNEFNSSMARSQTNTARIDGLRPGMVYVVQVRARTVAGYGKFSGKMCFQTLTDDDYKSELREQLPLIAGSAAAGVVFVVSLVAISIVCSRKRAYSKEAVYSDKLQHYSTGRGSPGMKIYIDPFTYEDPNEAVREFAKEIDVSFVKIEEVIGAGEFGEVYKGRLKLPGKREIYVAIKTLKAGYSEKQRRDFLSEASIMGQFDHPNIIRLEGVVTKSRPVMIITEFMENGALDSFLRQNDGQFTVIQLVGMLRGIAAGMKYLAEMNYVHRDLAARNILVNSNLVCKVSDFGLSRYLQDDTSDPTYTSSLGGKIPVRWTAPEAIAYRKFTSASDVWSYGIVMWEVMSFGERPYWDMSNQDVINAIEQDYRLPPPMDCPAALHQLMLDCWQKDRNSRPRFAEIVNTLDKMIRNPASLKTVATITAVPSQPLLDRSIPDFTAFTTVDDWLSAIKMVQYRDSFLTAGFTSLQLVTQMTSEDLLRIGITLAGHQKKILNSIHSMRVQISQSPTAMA

ERK3 = target: T4, ERK3 (Homo sapiens, UniProt Q16659)
T4 construct: purchased Eurofins DiscoverX KINOMEscan

ICK = target: T5, ICK (Homo sapiens, UniProt Q9UPZ9)
T5 construct: purchased Eurofins DiscoverX KINOMEscan
T5 sequence (Q9UPZ9 1-632): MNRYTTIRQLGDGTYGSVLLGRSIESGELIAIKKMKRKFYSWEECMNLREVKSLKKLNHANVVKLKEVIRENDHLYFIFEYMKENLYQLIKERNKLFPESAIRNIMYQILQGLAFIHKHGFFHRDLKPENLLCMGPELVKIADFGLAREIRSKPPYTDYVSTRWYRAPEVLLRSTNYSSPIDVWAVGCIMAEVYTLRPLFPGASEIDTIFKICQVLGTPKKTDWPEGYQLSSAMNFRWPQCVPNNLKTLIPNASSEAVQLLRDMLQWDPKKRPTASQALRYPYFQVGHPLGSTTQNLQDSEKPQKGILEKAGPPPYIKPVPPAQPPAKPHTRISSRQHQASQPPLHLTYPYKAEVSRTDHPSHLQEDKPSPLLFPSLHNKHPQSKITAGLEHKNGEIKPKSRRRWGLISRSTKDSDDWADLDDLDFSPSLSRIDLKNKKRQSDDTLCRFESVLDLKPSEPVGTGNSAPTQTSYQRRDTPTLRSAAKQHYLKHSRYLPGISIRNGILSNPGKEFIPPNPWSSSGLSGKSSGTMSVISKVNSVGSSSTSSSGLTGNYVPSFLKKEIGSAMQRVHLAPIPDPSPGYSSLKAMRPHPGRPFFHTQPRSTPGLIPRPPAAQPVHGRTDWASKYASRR

JNK3 = target: T6, JNK3 (Homo sapiens, UniProt P53779)
T6 construct: purchased Eurofins DiscoverX KINOMEscan

MKK7 = target: T7, MKK7 (Homo sapiens, UniProt O14733)
T7 construct: purchased Eurofins DiscoverX KINOMEscan
T7 sequence (O14733 1-419): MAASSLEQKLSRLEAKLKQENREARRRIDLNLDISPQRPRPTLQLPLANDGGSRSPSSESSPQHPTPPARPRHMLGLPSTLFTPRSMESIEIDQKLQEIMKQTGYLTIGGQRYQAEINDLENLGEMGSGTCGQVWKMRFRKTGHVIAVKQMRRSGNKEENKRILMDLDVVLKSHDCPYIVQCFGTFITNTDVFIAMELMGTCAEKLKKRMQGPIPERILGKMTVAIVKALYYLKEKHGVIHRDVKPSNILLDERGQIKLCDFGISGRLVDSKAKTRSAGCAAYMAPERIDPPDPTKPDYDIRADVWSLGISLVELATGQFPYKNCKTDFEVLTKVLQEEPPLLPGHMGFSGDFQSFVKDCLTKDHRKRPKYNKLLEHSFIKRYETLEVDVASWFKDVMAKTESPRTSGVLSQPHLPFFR

MRCKA = target: T8, MRCKA (Homo sapiens, UniProt Q5VT25)
T8 construct: purchased Eurofins DiscoverX KINOMEscan

PFTAIRE2 = target: T9, PFTAIRE2 (Homo sapiens, UniProt Q96Q40)
T9 construct: purchased Eurofins DiscoverX KINOMEscan

PIK3CB = target: T10, PIK3CB (Homo sapiens, UniProt P42338)
T10 construct: purchased Eurofins DiscoverX KINOMEscan

[2] = target: T11, RSK1(Kin.Dom.1-N-terminal) (Homo sapiens, UniProt Q15418)
T11 construct: RSK1(Kin.Dom.1-N-terminal); purchased Eurofins DiscoverX KINOMEscan

[3] = target: T12, RSK4(Kin.Dom.2-C-terminal) (Homo sapiens, UniProt Q9UK32)
T12 construct: RSK4(Kin.Dom.2-C-terminal); purchased Eurofins DiscoverX KINOMEscan
T12 sequence (Q9UK32 426-683 limits assumed): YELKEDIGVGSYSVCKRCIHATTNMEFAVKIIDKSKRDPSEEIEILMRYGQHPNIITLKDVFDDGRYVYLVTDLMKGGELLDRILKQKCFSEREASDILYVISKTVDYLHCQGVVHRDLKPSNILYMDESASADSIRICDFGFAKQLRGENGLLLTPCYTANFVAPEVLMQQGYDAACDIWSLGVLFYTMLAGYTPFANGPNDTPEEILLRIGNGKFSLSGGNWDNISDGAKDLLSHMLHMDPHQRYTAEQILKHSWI

T11 sequence (Q15418 62-321 limits assumed): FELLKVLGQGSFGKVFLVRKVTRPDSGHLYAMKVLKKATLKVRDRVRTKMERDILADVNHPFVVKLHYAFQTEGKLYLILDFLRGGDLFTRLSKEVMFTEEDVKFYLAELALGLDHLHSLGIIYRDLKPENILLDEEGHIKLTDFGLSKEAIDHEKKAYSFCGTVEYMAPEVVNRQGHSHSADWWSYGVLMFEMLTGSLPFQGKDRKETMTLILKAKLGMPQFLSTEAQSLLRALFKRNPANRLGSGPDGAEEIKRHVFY
T2 sequence (Q13131 whole entry): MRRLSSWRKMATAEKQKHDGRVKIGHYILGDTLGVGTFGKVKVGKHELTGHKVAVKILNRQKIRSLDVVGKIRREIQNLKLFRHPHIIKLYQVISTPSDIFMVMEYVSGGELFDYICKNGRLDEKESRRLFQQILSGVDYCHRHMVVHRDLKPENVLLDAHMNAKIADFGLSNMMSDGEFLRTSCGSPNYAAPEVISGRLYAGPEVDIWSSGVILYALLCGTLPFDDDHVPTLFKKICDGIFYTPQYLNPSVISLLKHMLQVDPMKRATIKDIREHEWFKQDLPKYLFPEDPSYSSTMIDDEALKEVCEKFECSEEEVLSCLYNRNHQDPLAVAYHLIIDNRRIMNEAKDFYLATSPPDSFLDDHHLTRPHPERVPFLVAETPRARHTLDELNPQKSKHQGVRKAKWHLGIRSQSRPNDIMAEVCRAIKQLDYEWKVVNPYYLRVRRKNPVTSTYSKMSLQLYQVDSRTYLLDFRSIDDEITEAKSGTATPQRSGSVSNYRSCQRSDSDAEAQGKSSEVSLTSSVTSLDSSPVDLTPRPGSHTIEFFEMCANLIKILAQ
T8 sequence (Q5VT25 whole entry): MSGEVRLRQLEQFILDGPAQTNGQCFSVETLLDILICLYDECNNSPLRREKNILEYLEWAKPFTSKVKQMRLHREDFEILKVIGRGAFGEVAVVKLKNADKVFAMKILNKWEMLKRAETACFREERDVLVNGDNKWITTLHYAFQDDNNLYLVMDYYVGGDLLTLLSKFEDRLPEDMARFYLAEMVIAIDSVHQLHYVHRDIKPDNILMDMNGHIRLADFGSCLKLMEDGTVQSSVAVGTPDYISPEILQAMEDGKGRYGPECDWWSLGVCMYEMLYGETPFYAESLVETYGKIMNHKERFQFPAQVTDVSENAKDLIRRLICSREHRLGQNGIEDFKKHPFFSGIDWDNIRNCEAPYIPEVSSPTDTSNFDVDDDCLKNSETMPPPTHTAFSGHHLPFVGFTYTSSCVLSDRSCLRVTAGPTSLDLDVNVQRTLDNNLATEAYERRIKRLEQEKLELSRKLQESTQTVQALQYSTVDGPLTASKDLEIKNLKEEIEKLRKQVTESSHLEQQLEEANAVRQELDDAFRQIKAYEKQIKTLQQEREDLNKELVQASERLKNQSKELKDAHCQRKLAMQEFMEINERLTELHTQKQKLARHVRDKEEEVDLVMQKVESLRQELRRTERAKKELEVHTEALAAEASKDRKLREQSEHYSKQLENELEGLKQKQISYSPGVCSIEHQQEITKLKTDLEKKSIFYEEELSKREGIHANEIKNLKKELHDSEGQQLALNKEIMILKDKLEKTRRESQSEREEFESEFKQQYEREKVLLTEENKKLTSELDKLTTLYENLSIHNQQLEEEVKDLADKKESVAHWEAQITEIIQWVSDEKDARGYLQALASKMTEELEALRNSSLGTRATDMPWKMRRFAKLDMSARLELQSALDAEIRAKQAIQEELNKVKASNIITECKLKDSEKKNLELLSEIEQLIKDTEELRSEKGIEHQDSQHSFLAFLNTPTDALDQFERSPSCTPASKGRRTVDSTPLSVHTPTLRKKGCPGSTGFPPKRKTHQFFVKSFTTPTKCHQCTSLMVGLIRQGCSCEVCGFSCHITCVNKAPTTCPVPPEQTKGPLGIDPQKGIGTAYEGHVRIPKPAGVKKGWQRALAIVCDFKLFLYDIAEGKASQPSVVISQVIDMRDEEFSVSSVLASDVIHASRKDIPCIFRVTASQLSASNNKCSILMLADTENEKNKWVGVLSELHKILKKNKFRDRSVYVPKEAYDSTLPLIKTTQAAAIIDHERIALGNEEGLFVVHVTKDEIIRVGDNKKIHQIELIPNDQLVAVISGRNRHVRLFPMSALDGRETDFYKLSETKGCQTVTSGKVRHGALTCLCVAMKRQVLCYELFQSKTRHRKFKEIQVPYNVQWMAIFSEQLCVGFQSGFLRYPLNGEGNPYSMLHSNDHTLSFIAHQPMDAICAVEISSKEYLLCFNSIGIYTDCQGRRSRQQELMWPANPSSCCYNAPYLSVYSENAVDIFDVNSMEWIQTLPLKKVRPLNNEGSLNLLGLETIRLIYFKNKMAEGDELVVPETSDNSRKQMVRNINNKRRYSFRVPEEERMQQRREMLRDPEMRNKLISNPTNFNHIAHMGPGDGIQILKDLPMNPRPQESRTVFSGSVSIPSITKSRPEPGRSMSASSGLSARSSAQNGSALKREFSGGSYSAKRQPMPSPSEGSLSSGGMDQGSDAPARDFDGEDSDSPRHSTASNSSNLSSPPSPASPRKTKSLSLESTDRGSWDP
T9 sequence (Q96Q40 whole entry): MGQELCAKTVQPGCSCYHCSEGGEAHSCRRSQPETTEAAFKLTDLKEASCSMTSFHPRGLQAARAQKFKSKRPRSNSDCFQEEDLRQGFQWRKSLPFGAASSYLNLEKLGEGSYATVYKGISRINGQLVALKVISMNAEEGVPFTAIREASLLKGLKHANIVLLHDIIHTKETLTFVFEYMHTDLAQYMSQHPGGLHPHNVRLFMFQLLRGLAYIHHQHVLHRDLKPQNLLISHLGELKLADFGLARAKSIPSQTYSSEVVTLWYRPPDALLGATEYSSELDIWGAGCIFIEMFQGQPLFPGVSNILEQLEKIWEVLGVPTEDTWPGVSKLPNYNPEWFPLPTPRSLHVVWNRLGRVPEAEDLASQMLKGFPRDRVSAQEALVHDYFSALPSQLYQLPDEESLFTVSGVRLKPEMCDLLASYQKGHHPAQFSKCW
T10 sequence (P42338 whole entry): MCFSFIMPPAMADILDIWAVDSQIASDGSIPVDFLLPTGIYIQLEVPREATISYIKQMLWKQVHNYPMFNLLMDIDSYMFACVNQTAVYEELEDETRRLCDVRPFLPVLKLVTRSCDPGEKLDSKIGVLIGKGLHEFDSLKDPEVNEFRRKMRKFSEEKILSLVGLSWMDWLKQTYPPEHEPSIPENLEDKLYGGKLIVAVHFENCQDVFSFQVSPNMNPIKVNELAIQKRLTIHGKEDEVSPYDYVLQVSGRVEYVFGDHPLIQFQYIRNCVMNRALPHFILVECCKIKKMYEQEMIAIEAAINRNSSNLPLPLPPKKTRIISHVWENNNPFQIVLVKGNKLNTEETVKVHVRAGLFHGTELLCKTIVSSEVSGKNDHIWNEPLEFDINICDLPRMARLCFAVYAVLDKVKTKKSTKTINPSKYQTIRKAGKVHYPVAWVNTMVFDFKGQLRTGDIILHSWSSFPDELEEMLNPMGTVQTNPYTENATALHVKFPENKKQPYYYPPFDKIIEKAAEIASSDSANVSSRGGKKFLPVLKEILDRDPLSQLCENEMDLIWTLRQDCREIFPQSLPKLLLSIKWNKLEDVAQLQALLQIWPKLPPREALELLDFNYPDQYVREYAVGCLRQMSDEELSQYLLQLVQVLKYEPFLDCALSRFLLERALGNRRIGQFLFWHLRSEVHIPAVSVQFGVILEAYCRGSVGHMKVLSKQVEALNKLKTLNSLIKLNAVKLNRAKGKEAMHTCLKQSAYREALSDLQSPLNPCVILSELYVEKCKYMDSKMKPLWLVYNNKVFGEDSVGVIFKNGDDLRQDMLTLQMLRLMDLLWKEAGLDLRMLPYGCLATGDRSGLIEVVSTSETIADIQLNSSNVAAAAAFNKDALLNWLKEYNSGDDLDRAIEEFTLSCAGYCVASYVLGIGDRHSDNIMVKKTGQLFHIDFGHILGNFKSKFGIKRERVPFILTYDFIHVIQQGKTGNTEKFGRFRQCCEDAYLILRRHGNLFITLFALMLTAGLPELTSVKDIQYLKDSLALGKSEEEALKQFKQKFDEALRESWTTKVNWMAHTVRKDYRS
T4 sequence (Q16659 whole entry): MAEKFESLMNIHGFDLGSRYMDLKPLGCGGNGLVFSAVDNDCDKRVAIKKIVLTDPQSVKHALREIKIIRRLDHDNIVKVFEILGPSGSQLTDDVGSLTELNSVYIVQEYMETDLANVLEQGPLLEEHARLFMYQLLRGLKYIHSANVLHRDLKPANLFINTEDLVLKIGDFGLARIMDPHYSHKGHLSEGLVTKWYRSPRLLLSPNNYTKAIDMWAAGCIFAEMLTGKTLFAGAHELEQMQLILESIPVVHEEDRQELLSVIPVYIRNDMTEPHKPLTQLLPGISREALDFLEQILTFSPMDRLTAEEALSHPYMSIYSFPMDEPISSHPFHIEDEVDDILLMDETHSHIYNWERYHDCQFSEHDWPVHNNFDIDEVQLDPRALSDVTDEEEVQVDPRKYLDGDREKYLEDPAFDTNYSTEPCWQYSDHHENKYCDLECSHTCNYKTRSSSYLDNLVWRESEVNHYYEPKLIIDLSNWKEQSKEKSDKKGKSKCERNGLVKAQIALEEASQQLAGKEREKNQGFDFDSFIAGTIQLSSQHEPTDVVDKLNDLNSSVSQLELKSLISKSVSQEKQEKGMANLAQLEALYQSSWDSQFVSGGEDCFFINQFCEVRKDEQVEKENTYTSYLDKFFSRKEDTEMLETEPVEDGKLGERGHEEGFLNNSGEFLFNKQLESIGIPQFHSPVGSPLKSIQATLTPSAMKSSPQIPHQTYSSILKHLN

SMILES | remaining binding at 1 µM [1] [%] | remaining binding at 1 µM (AMPK-alpha1) [%] | remaining binding at 1 µM (EPHB1) [%] | remaining binding at 1 µM (ERK3) [%] | remaining binding at 1 µM (ICK) [%] | remaining binding at 1 µM (JNK3) [%] | remaining binding at 1 µM (MKK7) [%] | remaining binding at 1 µM (MRCKA) [%] | remaining binding at 1 µM (PFTAIRE2) [%] | remaining binding at 1 µM (PIK3CB) [%] | remaining binding at 1 µM [2] [%] | remaining binding at 1 µM [3] [%]
Clc1cc(NCC2CC2)c2ncc(-c3ccc4[nH]ncc4c3)n2n1 [compound 2, 6-Chloro-N-(cyclopropylmethyl)-3-(1H-indazol-5-yl)imidazo[1,2-b]pyridazin-8-amine] | 76 | 96 | 100 | 96 | 80 | 89 | 92 | 90 | 100 | 82 | 72 | 92
O=C(CN1CCOCC1)N[C@H]1CC[C@H](Nc2cc(Cl)nn3c(-c4ccc5[nH]ncc5c4)cnc23)CC1 [compound 26] | 38 | 85 | 89 | 68 | 74 | 79 | 100 | 82 | 40 | 93 | 54 | 56
CN1CCC(CNc2cc(Cl)nn3c(-c4cc5nc(Nc6ccccc6)[nH]c5cc4F)cnc23)CC1 [compound 31, 6-Chloro-3-(6-fluoro-2-(phenylamino)-1H-benzo[d]imidazol-5-yl)-N-((1-methylpiperidin-4-yl)methyl)imidazo[1,2-b]pyridazin-8-amine] | 71 | 94 | 84 | 94 | 97 | 99 | 93 | 97 | 91 | 97 | 100 | 88

Source: paper PMC6437697 (Journal of Medicinal Chemistry, 2019)
